{
  "source": "patent US8106092B2",
  "about": "“Treatment of solid cancers” (priority 2004, dated 2012)",
  "key": {"B16 tumors": {"tested_on": "B16 tumors", "assay": "Example 2: sub-optimal topical PEP005 combined with M720/B16 vaccination and DC+IL-2, cure of primary B16 tumors", "format": "in vivo, C57BL/6 mice", "excerpt": "To determine whether PEP005 (ingenol-3-angelate) treatment could synergize with (i) vaccine-induced anti-cancer CD4^+ T-cells/antibodies and/or (ii) DC vaccine-induced anti-cancer CD8^+ T-cells, topical PEP005 treatment was combined with vaccination using (i) B16 lysate emulsified in Montanide ISA 720 adjuvant (M720/B16) and (ii) DC2.4 cells sensitized with TRP-2 peptide, SVYDFFVWL [SEQ ID NO:1] (a dominant CD8^+ T-cell epitope for anti-B16 CM^+ T-cells) and activated with LPS (Camporeale et al, Can Res 63:3688, 2003) (DC). The latter group also received IL-2 to maintain the vaccine induced T-cells. The topical PEP005 dose (10 μg/mouse) was known not to be sufficient to cure most B16 tumors of reasonable size. Thus, this experiment sought to determine whether improvements in B16 cure rate could be achieved when sub-optimal topical PEP005 treatment was combined with other immune-based therapies.\nB16 tumors were injected 2×10^4 s.c. in groups (n=5 per group) of C57BL/6 mice and after 12 days (d0) had reached 8-12 mm^2 in size. The groups of animal received the following treatments:\nPEP005: On d0, the tumors in this group were treated topically with PEP005, 10 μg/mouse in 10 μl isopropanol gel.\nPEP005+M720: On d−5 (day minus 5), the animals had received Montanide ISA 720 adjuvant (M720) emulsified 7:3 v:v (Elliott et al, Vaccine. 17(15-16):2009-2019, 1999) with water (volume 100 μl/mouse s.c.) and on d0, the tumors in this group were treated topically with PEP005.\nPEP005+M720/B16: On d−5, the animals had received Montanide ISA 720 adjuvant (M720) emulsified 7:3 v:v (Elliott et al, 1999 supra) with B16 cell lysate (3×10^5 B16 cells per mouse s.c., volume 100 μl/mouse) and on d0, the tumors in this group were treated topically with PEP005. A modality was known to induce CD4^+ T-cells specific for B16.\nPEP005+M720/B16+DC+IL-2: On d0, the tumors in this group were treated topically with PEP005 and had been given M720/B16 as for Group 4. The group also received on d0 DC in the form of a DC cell line, DC2.4. These cells were (i) sensitized with TRP-2 peptide, SVYDFFVWL [SEQ ID NO:1] […]"}, "B16-OVA lung metastases": {"tested_on": "B16-OVA lung metastases", "assay": "B16-OVA melanoma lung metastasis model", "format": "in vivo, C57BL/6 mice", "method": "FIGS. 4A to D are graphical representations showing protection against secondary tumors following cure of primary tumors with PEP005. (A) C57BL/6 mice received 5×10^5 Lewis lung-OVA s.c. on the back on day less 7 (d−7). When these primary tumors had reached an average 13.6 mm^2±1.8 SE (range 10-25 mm^2) on d0 they were treated once with 16 μg of PEP005 delivered i.t. In eight mice these primary tumors were cured, and these mice received 5×10^5 Lewis lung-OVA s.c. on d4 on the opposite flank from the primary tumors. The emergence of these secondary tumors was monitored over time (PEP005 cured). In a parallel group of animals (n=5) PEP005 treatment regressed the primary tumors, but after 11-13 days the primary tumors re-emerged. These animals also received secondary tumors as above and their emergence was again monitored over time (PEP005 regressed). Two control groups were included. One group (n=6) received no primary tumors, but was treated s.c. with PEP005 and received secondary tumors on the opposite flank (white triangles, PEP005 s.c.). The second control group (n=8) also received no primary tumors, was not treated with PEP005, and received secondary tumors as above (Controls). […] Secondary B16-OVA (10^5) were injected i.v. on d6 and animals were sacrificed on d27 and lung metastases counted. […]"}},
  "data": [
    {"compound": "C/C=C(/C)C(=O)O[C@H]1C(C)=C[C@]23C(=O)[C@@H](C=C(CO)[C@@H](O)[C@]12O)[C@H]1[C@@H](C[C@H]3C)C1(C)C", "note": "[PEP005, ingenol-3-angelate]", "values": [
      {"measurement": "regression of treated tumors", "setting": "B16 tumors; all PEP005 treated tumors", "result": "regressed by treatment to below detectable size"},
      {"measurement": "day on which tumor became visible again / emerged", "setting": "B16 tumors; day (d) after treatment on d0, growth curves FIG. 7", "result": "4-5"},
      {"measurement": "treated tumors re-emerging (failure rate)", "setting": "B16 tumors; topical 10 μg PEP005, combined PEP005/PEP005+M720 group n=10, tumors 8-12 mm^2", "result": 90, "unit": "%"},
      {"measurement": "growth of lung metastases", "setting": "B16-OVA lung metastases; partial regression of the primary tumors by PEP005", "result": "failed to inhibit significantly"},
      {"measurement": "number of lung metastases", "setting": "B16-OVA lung metastases; s.c. primary B16-OVA cured by PEP005, B16-OVA i.v. six days after treatment, Wilcoxon p=0.046", "result": "reduce significantly"}
    ]}
  ]
}
